Legend:
Assay in all cases: Test E greenhouse herbicide test, pre- and postemergence
Type in all cases: in vivo
[1] = system: crabgrass, Brazilian (Brazilian crabgrass, Digitaria horizontalis)
Procedure, shortened: (§1)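 Scores (0–100, visual, vs controls) reflect greenhouse growth of 14 to 21 d after treatment. Application was pre-emergence to silt loam or post-emergence at the 1- to 4-leaf stage.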

[2] = system: horseweed (Conyza canadensis)
Procedure, shortened: as §1

corn (Zea mays) = system: corn (Zea mays)
Procedure, shortened: as §1

kochia (Kochia scoparia) = system: kochia (Kochia scoparia)
Procedure, shortened: as §1

[3] = system: field bindweed (Convolvulus arvensis)
Procedure, shortened: as §1

[4] = system: Italian ryegrass (Lolium multiflorum)
Procedure, shortened: as §1

[5] = system: panicum, fall (fall panicum, Panicum dichotomiflorum)
Procedure, shortened: as §1

[6] = system: crabgrass, large (large crabgrass, Digitaria sanguinalis); conditions: Preemergence
Procedure, shortened: as §1

[7] = system: barnyardgrass (Echinochloa crus-galli)
Procedure, shortened: as §1

[8] = system: beggarticks (hairy beggarticks, Bidens pilosa)
Procedure, shortened: as §1

[9] = system: foxtail, giant (giant foxtail, Setaria faberii); conditions: Preemergence
Procedure, shortened: as §1

[10] = system: ragweed (common ragweed, Ambrosia elatior)
Procedure, shortened: as §1

[11] = system: velvetleaf (Abutilon theophrasti); conditions: Preemergence
Procedure, shortened: as §1

[12] = system: momingglory (Ipomoea coccinea); conditions: Preemergence
Procedure, shortened: as §1

[13] = system: foxtail, green (green foxtail, Setaria viridis); conditions: Preemergence
Procedure, shortened: as §1

[14] = system: pigweed, palmer (palmer pigweed, Amaranthus palmeri)
Procedure, shortened: as §1

[15] = system: nutsedge, yellow (yellow nutsedge, Cyperus esculentus); conditions: Preemergence
Procedure, shortened: as §1

[16] = 62 g ai/ha, Postemergence, scale 0 to 100 (0 no effect, 100 complete control)
[17] = 62 g ai/ha, Preemergence, scale 0 to 100 (0 no effect, 100 complete control)
[18] = 125 g ai/ha, Postemergence, scale 0 to 100 (0 no effect, 100 complete control)
[19] = 125 g ai/ha, Preemergence, scale 0 to 100 (0 no effect, 100 complete control)
[20] = 250 g ai/ha, Postemergence, scale 0 to 100 (0 no effect, 100 complete control)
[21] = Postemergence, 31 g ai/ha, visual, scale 0 no effect to 100 complete control
[22] = Preemergence, 31 g ai/ha, scale 0 to 100, 0 no effect, 100 complete control
[23] = Preemergence, 250 g ai/ha, visual, scale 0 no effect to 100 complete control
[24] = 62 g ai/ha, scale 0 to 100 (0 no effect, 100 complete control)
[25] = 125 g ai/ha, scale 0 to 100 (0 no effect, 100 complete control)
[26] = 31 g ai/ha, scale 0 to 100, 0 no effect, 100 complete control
[27] = 250 g ai/ha, visual, scale 0 no effect to 100 complete control

CC(=O)Oc1c(C)nn(C)c(=O)c1-c1c(C)cc(C)c2ccccc12 [Compound 153]
55: Plant response rating, Kochia (kochia (Kochia scoparia); [18])
70: Plant response rating, Crabgrass, Brazil [1, 17] | Plant response rating, Kochia (kochia (Kochia scoparia); [20]) | Plant response rating, Crabgrass, Large [6, 24] | Plant response rating, Crabgrass, Large [6, 26] | Plant response rating, Barnyardgrass [7, 19] | Plant response rating, Ragweed [10, 16]
85: Plant response rating, Horseweed [2, 18] | Plant response rating, Horseweed [2, 20] | Plant response rating, Horseweed [2, 21] | Plant response rating, Ryegrass, Italian [4, 21] | Plant response rating, Panicum, Fall [5, 21] | Plant response rating, Velvetleaf [11, 26] | Plant response rating, Morningglory [12, 26]
90: Plant response rating, Crabgrass, Brazil [1, 22] | Plant response rating, Horseweed [2, 22] | Plant response rating, Kochia (kochia (Kochia scoparia); [23]) | Plant response rating, Field Bindweed [3, 16] | Plant response rating, Field Bindweed [3, 22] | Plant response rating, Ryegrass, Italian [4, 16] | Plant response rating, Ryegrass, Italian [4, 18] | Plant response rating, Panicum, Fall [5, 16] | Plant response rating, Panicum, Fall [5, 18] | Plant response rating, Panicum, Fall [5, 20] | Plant response rating, Barnyardgrass [7, 23] | Plant response rating, Ragweed [10, 20] | Plant response rating, Velvetleaf [11, 25] | Plant response rating, Morningglory [12, 25] | Plant response rating, Foxtail, Green [13, 25]
0: Plant response rating, Corn (corn (Zea mays); [16]) | Plant response rating, Corn (corn (Zea mays); [17]) | Plant response rating, Corn (corn (Zea mays); [18]) | Plant response rating, Corn (corn (Zea mays); [20]) | Plant response rating, Corn (corn (Zea mays); [21]) | Plant response rating, Corn (corn (Zea mays); [22])
75: Plant response rating, Crabgrass, Large [6, 25] | Plant response rating, Foxtail, Giant [9, 26] | Plant response rating, Ragweed [10, 21] | Plant response rating, Foxtail, Green [13, 24]
20: Plant response rating, Crabgrass, Brazil [1, 21] | Plant response rating, Corn (corn (Zea mays); [23]) | Plant response rating, Barnyardgrass [7, 22] | Plant response rating, Pigweed, Palmer [14, 16] | Plant response rating, Pigweed, Palmer [14, 21]
25: Plant response rating, Barnyardgrass [7, 21]
40: Plant response rating, Crabgrass, Brazil [1, 18] | Plant response rating, Kochia (kochia (Kochia scoparia); [22]) | Plant response rating, Barnyardgrass [7, 16] | Plant response rating, Pigweed, Palmer [14, 20]
80: Plant response rating, Horseweed [2, 16] | Plant response rating, Field Bindweed [3, 21] | Plant response rating, Crabgrass, Large [6, 27] | Plant response rating, Barnyardgrass [7, 20] | Plant response rating, Ragweed [10, 18] | Plant response rating, Nutsedge, Yellow [15, 25]
95: Plant response rating, Field Bindweed [3, 20] | Plant response rating, Ryegrass, Italian [4, 20] | Plant response rating, Foxtail, Giant [9, 24] | Plant response rating, Foxtail, Giant [9, 25] | Plant response rating, Ragweed [10, 19] | Plant response rating, Foxtail, Green [13, 27] | Plant response rating, Pigweed, Palmer [14, 23] | Plant response rating, Nutsedge, Yellow [15, 27]
30: Plant response rating, Crabgrass, Brazil [1, 16] | Plant response rating, Pigweed, Palmer [14, 18]
50: Plant response rating, Crabgrass, Brazil [1, 20] | Plant response rating, Kochia (kochia (Kochia scoparia); [16]) | Plant response rating, Kochia (kochia (Kochia scoparia); [19]) | Plant response rating, Kochia (kochia (Kochia scoparia); [21]) | Plant response rating, Barnyardgrass [7, 17] | Plant response rating, Barnyardgrass [7, 18] | Plant response rating, Foxtail, Green [13, 26] | Plant response rating, Pigweed, Palmer [14, 22] | Plant response rating, Nutsedge, Yellow [15, 26]
10: Plant response rating, Corn (corn (Zea mays); [19])
60: Plant response rating, Pigweed, Palmer [14, 19]
100: Plant response rating, Crabgrass, Brazil [1, 19] | Plant response rating, Crabgrass, Brazil [1, 23] | Plant response rating, Horseweed [2, 17] | Plant response rating, Horseweed [2, 19] | Plant response rating, Horseweed [2, 23] | Plant response rating, Field Bindweed [3, 17] | Plant response rating, Field Bindweed [3, 18] | Plant response rating, Field Bindweed [3, 19] | Plant response rating, Field Bindweed [3, 23] | Plant response rating, Ryegrass, Italian [4, 19] | Plant response rating, Ryegrass, Italian [4, 22] | Plant response rating, Ryegrass, Italian [4, 23] | Plant response rating, Panicum, Fall [5, 19] | Plant response rating, Panicum, Fall [5, 22] | Plant response rating, Panicum, Fall [5, 23] | Plant response rating, Beggarticks [8, 16] | Plant response rating, Beggarticks [8, 17] | Plant response rating, Beggarticks [8, 18] | Plant response rating, Beggarticks [8, 19] | Plant response rating, Beggarticks [8, 20] | Plant response rating, Beggarticks [8, 21] | Plant response rating, Beggarticks [8, 22] | Plant response rating, Beggarticks [8, 23] | Plant response rating, Foxtail, Giant [9, 27] | Plant response rating, Ragweed [10, 22] | Plant response rating, Ragweed [10, 23] | Plant response rating, Velvetleaf [11, 27] | Plant response rating, Morningglory [12, 27]
